Values quoted from earlier work in PMC10816276 (International Journal of Molecular Sciences, 2024).

Target: T1, Mushroom tyrosinase (mTyr) (Agaricus bisporus, UniProt C7FF04)
T1 construct: purchased Sigma-Aldrich
Conditions: substrate L-DOPA; cited from earlier work

T1 sequence (C7FF04 1-392): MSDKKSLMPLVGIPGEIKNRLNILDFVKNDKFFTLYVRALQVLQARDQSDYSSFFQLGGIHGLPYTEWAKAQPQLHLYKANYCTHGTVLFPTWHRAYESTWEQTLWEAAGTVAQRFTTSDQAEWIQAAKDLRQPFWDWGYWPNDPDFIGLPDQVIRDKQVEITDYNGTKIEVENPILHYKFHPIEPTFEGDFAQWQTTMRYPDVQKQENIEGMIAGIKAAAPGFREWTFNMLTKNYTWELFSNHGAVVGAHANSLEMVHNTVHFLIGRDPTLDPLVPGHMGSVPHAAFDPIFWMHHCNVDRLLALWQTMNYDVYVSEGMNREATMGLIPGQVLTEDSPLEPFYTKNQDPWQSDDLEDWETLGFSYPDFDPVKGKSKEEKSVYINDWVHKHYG

OC[C@H]1O[C@@H](Oc2ccc(O)cc2)[C@H](O)[C@@H](O)[C@@H]1O [beta-arbutin, reference compound]
inhibitory effect on the diphenolase activity of mTyr: no inhibitory effect
